Test results published in patent US20140378451A1, “Cannabinoid-2-Receptor Agonists” (ISIS INNOVATION LIMITED, priority 2011, published 2014).

What was measured:
hCB2R = biological target: T1, hCB2R (Homo sapiens, UniProt P34972); assay: cAMP assay on hCB2R clone 3D8.3 (transfected CHO-K1 cells); type: cell-based; details: for IC50: cAMP, hCNR2 CHO-K1 3D8.3 clone, read-out: Assay 1 IC50
T1 construct: unnamed tag of the plasmid; expressed in transfected cells
Method: (§1) Compounds were evaluated for their CB2R agonist potency in the following assays:
Assay 1—cAMP Assay on hCB2R Clone 3D8.3:
Chinese hamster ovary cells (CHO)-K1 were transfected with hCB2R plasmid using Genejuice (Merck). After 48 h the cells were transferred into flasks in the presence of the antibiotic G418 and expanded (with continuous replenishment of the antibiotic). Two single-cell cloning rounds were then performed, followed by verification of the presence of the tag of the plasmid and confirming the receptor was functional in cAMP studies. For the screening of compounds: Briefly, hCNR2 CHO-K1 (3D8.3 clone) cells were plated in Optimem+1% FCS (30000 cells, 100 ul per well) in half-area 96-well plates (Corning 3885) and placed in an incubator 37° C. 5% CO2 overnight. Next day, the medium was aspirated and replaced with ‘antibody solution’ (22.5 ul) (provided concentrated, diluted 1 in 3 with ‘assay buffer’ provided). The freshly made compounds (at a ×4 final concentration) or solvent alone (1.2% DMSO) were added to the wells and incubated for 30 minutes in a 37° C. incubator 5% CO2. A mixture of: Lysis solution (38%), substrates (Emerald-II™ (10%) and Galacton-Star® (2%)) and enzyme donor-labeled cAMP (50%) was added to the wells and incubated in the dark for one hour at room temperature. 30 μl of detection reagent (enzyme acceptor, provided) was then added to the wells and incubated in the dark for 3 hours at room temperature. The luminescence was then read with a Perkin-Elmer luminometer.

hCNR2 (CB2R) = biological target: T2, hCNR2 (CB2R) (Homo sapiens, UniProt P34972); assay: DiscoveRx cAMP Hunter Express GPCR assay (hCNR2 CHO-K1 cells); type: cell-based; details: cAMP Hunter eXpress, hCNR2 CHO-K1 cells; read-out: Assay 2 IC50
T2 construct: host or cells: CHO-K1 (purchased recombinant cell line)
Method: as §1
Assay 2—DiscoveRx cAMP Hunter Express GPCR Assay
The cAMP Hunter eXpress GPCR assay kit and cells used are from DiscoveRx Corporation (95-0040E2) using the manufacturer's protocol without the optional IBMX step. […] Briefly, hCNR2 CHO-K1 cells were plated in the provided medium (50 ul per well) in half-area 96-well plates (Corning 3885) and placed in an incubator 37° C. 5% CO2 overnight. Next day, the medium was aspirated and replaced with ‘antibody solution’ (22.5 ul) (provided concentrated, diluted 1 in 3 with ‘assay buffer’ provided). The freshly made compounds (at a ×4 final concentration) or solvent alone (1.2% DMSO) were added to the wells and incubated for 30 minutes in a 37° C. incubator 5% CO2. A mixture of lysis solution and two substrates (provided with the DiscoveRx kit) was added to the wells and incubated in the dark for one hour at room temperature. A detection reagent (provided) was then added to the wells and incubated in the dark for 3 hours at room temperature. The luminescence was then read with a Perkin-Elmer luminometer.

T2 sequence (P34972 whole entry): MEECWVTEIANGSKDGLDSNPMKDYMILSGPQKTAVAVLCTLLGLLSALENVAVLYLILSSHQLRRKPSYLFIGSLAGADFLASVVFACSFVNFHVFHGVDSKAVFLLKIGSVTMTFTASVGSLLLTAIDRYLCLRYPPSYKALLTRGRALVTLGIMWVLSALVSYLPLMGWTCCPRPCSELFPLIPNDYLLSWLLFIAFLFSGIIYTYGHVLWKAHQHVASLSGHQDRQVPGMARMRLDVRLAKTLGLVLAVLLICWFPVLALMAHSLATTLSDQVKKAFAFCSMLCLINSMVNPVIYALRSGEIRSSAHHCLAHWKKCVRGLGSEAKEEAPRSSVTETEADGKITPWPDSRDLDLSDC
T1 sequence (P34972 whole entry): as above

| SMILES | IC50 (hCB2R) | IC50 (hCNR2 (CB2R)) | Assay 1 activity at 3 μM (hCB2R) |
| --- | --- | --- | --- |
| C[C@@H]1C[C@H]1C(=O)n1c2ccccc2c2nnc(SCc3ccccc3C#N)nc21 (relative stereo) [Example 40, 2′-((5-(2″-Methylcyclopropanecarbonyl)-5H-[1,2,4]triazino[5,6-b]indol-3-ylthio)methyl)benzonitrile] | 628 nM |  |  |
| N#Cc1ccccc1CSc1nnc2c3ccccc3n(C(=O)[C@@H]3C[C@H]3c3ccccc3)c2n1 (stereo in doubt) [Example 38, 2′-((5-(2″-Phenylcyclopropanecarbonyl)-5H-[1,2,4]triazino[5,6-b]indol-3-ylthio)methyl)benzonitrile] | 72 nM |  |  |
| O=[N+]([O-])c1ccccc1CSc1nnc2c(n1)[nH]c1ccccc12 [Example 1, 3-((2′-nitrobenzyl)thio)-5H-[1,2,4]triazino[5,6-b]indole] | 129 nM | 33 nM |  |
| N#Cc1ccccc1CSc1nnc2c(n1)[nH]c1ccccc12 [Example 2, 3-((2′-Cyanobenzyl)thio)-5H-[1,2,4]triazino[5,6-b]indole] | 160 nM | 112 nM |  |
| N#Cc1ccccc1CSc1nnc2c3ccccc3n(Cc3ccccc3)c2n1 [Example 3, 2′-(((5-Benzyl-5H-[1,2,4]triazino[5,6-b]indol-3-yl)thio)methyl)benzonitrile] | 96 nM | 214 nM |  |
| N#Cc1ccccc1CSc1nnc2c3ccccc3n(Cc3ccc(Cl)cc3)c2n1 [Example 5, 2′(((5-(4″-Chlorobenzyl)-5H-[1,2,4]triazino[5,6-b]indol-3-yl)thio)methyl)benzonitrile] | ~600 nM |  |  |
| O=[N+]([O-])c1ccccc1CSc1nnc2c3ccccc3n(Cc3ccc(Cl)cc3)c2n1 [Example 6, 5-(4″-Chlorobenzyl)-3-((2′-nitrobenzyl)thio)-5H-[1,2,4]triazino[5,6-b]indole] | 631 nM | 109 nM |  |
| O=C(c1ccccc1)n1c2ccccc2c2nnc(SCc3ccccc3[N+](=O)[O-])nc21 [Example 7, (3-((2′-Nitrobenzyl)thio)-5H-[1,2,4]triazino[5,6-b]indol-5-yl)(phenyl)methanone] | 840 nM | 75 nM |  |
| N#Cc1ccccc1CSc1nnc2c(n1)[nH]c1cccc(Br)c12 [Example 8, 2′-(((9-Bromo-5H-[1,2,4]triazino[5,6-b]indol-3-yl)thio)methyl)benzonitrile] | 228 nM | 39 nM |  |
| O=[N+]([O-])c1ccccc1CSc1nnc2c(n1)[nH]c1cccc(Br)c12 [Example 9, 9-Bromo-3-((2′-nitrobenzyl)thio)-5H-[1,2,4]triazino[5,6-b]indole] | 280 nM | 37 nM |  |
| N#Cc1ccccc1CSc1nnc2c3ccccc3n(Cc3ccccc3[N+](=O)[O-])c2n1 [Example 10, 2′-(((5-(2″-Nitrobenzyl)-5H-[1,2,4]triazino[5,6-b]indol-3-yl)thio)methyl)benzonitrile] | 355 nM | 53 nM |  |
| O=[N+]([O-])c1ccc(CSc2nnc3c(n2)[nH]c2ccccc23)c([N+](=O)[O-])c1 [Example 11, 3-((2′,4′-Dinitrobenzyl)thio)-5H-[1,2,4]triazino[5,6-b]indole] | 3900 nM | 576 nM |  |
| O=[N+]([O-])c1cccc(F)c1CSc1nnc2c(n1)[nH]c1ccccc12 [Example 12, 3-((2′-Fluoro-6′-nitrobenzyl)thio)-5H-[1,2,4]triazino[5,6-b]indole] | 1900 nM | 539 nM |  |
| O=[N+]([O-])c1ccccc1CSc1nnc2c3ccccc3n(Cc3ccccc3)c2n1 [Example 14, 5-Benzyl-3-((2′-nitrobenzyl)thio)-5H-[1,2,4]triazino[5,6-b]indole] |  |  | ~40% activity at 3 μM |
| Cc1ccccc1CSc1nnc2c(n1)[nH]c1ccccc12 [Example 15, 3-((2′-Methylbenzyl)thio)-5H-[1,2,4]triazino[5,6-b]indole] |  | 215 nM |  |
| COc1ccc(C(=O)n2c3ccccc3c3nnc(SCc4ccccc4C#N)nc32)cc1OC [Example 17] |  |  | ~60% activity at 3 μM |
| CC(=O)n1c2ccccc2c2nnc(SCc3ccccc3C#N)nc21 [Example 29, 2′(((5-Acetyl-5H-[1,2,4]triazino[5,6-b]indol-3-yl)thio)methyl)benzonitrile] | > 3000 nM |  |  |
| CCn1c2ccccc2c2nnc(SCc3ccccc3C#N)nc21 [Example 30, 2′-(((5-Ethyl-5H-[1,2,4]triazino[5,6-b]indol-3-yl)thio)methyl)benzonitrile] | 674 nM |  |  |

| SMILES | IC50 (hCB2R) | IC50 (hCNR2 (CB2R)) | Assay 1 activity at 3 μM (hCB2R) |
| --- | --- | --- | --- |
| CCCCn1c2ccccc2c2nnc(SCc3ccccc3C#N)nc21 [Example 31, 2′-(((5-Butyl-5H-[1,2,4]triazino[5,6-b]indol-3-yl)thio)methyl)benzonitrile] | 106 nM |  |  |
| N#Cc1ccccc1C[S+]([O-])c1nnc2c(n1)[nH]c1ccccc12 (stereo not drawn) [Example 32, 2′-(((5H-[1,2,4]Triazino[5,6-b]indol-3-yl)sulfinyl)methyl)benzonitrile] | 3550 nM |  |  |
| O=[N+]([O-])c1ccc(CSc2nnc3c(n2)[nH]c2ccccc23)cc1 [Example 33, 3-((4′-Nitrobenzyl)thio)-5H-[1,2,4]triazino[5,6-b]indole] | 617 nM |  |  |
| N#Cc1ccccc1CSc1nnc2c3ccccc3n(S(=O)(=O)c3ccccc3)c2n1 [Example 34, 2′-(((5-(Phenylsulfonyl)-5H-[1,2,4]triazino[5,6-b]indol-3-yl)thio)methyl)benzonitrile] | 76 nM |  |  |
| N#Cc1ccccc1CSc1nnc2c3ccccc3n(CC3CCCCC3)c2n1 [Example 36, 2′-(((5-(Cyclohexylmethyl)-5H-[1,2,4]triazino[5,6-b]indol-3-yl)thio)methyl)benzonitrile] | 270 nM |  |  |
| N#Cc1ccccc1CSc1nnc2c3ccccc3n(Cc3ccc(F)cc3)c2n1 [Example 37, 2′-(((5-(4″-Fluorobenzyl)-5H-[1,2,4]triazino[5,6-b]indol-3-yl)thio)methyl)benzonitrile] | 45 nM |  |  |
| N#Cc1ccccc1CSc1nnc2c3ccccc3n(CC(=O)C3CC3)c2n1 [Example 39, 2′-((5-(2-Cyclopropyl-2-oxoethyl)-5H-[1,2,4]triazino[5,6-b]indol-3-ylthio)methyl)benzonitrile] | 549 nM |  |  |
| N#Cc1ccccc1CSc1nnc2c3ccccc3n(CC3CC3)c2n1 [Example 41, 2′-((5-(Cyclopropylmethyl)-5H-[1,2,4]triazino[5,6-b]indol-3-ylthio)methyl)benzonitrile] | 144 nM |  |  |
| N#Cc1ccccc1CSc1nnc2c3ccccc3n(C(=O)C3CC3)c2n1 [Example 42, 2′-(((5-(Cyclopropanecarbonyl)-5H-[1,2,4]triazino[5,6-b]indole-3-yl)thio)methyl)benzonitrile] | 181 nM |  |  |
| N#Cc1ccccc1CSc1nnc2c3c(Br)cccc3n(CC3CC3)c2n1 [Example 43, 2′-(((9-Bromo-5-(cyclopropylmethyl)-5H-[1,2,4]triazino[5,6-b]indol-3-yl)thio)methyl)benzonitrile] | 20 nM |  |  |
| N#Cc1ccccc1CSc1nnc2c3c(Br)cccc3n(C(=O)C3CC3)c2n1 [Example 44, 2′-(((9-Bromo-5-(cyclopropanecarbonyl)-5H-[1,2,4]triazino[5,6-b]indol-3-yl)thio)methyl)benzonitrile] | 16 nM |  |  |
| O=C(O)c1ccccc1CSc1nnc2c(n1)[nH]c1ccccc12 [Example 46, 2′-(((5H-[1,2,4]Triazino[5,6-b]indol-3-yl)thio)methyl)benzoic] | 2180 nM |  |  |
| c1ccc(-c2nn[nH]n2)c(CSc2nnc3c(n2)[nH]c2ccccc23)c1 [Example 47] | 11 nM |  |  |
| Cc1ccccc1-c1cccc2[nH]c3nc(SCc4ccccc4C#N)nnc3c12 [Example 48, 2″-(((9-(o-Tolyl)-5H-[1,2,4]triazino[5,6-b]indol-3-yl)thio)methyl)benzonitrile] | 4300 nM |  |  |
| COc1ccc(-c2cccc3[nH]c4nc(SCc5ccccc5C#N)nnc4c23)cc1 [Example 49, 2″-(((9-(4′-Methoxyphenyl)-5H-[1,2,4]triazino[5,6-b]indol-3-yl)thio)methyl)benzonitrile] | 2620 nM |  |  |
| N#Cc1ccccc1CSc1nnc2c(n1)[nH]c1cccc(-c3ccsc3)c12 [Example 50, 2″-(((9-(Thiophen-3′-yl)-5H-[1,2,4]triazino[5,6-b]indol-3-yl)thio)methyl)benzonitrile] | 1760 nM |  |  |
| N#Cc1ccccc1CSc1nnc2c(n1)[nH]c1cccc(C3CC3)c12 [Example 51, 2″-(((9-Cyclopropyl-5H-[1,2,4]triazino[5,6-b]indol-3-yl)thio)methyl)benzonitrile] | 231 nM |  |  |
